Reference: US10017481B2, “Conformationally constrained, fully synthetic macrocyclic compounds” (POLYPHOR AG, priority 2012, dated 2018)
≈ marks a conversion by molar mass, not a printed value. Where two headings read alike, the source gives them in different places. One block for each compound: values may come before it.

Assays:
[1] = system: S. aureus ATCC 29213, ATCC 25923, DSM 11729, DSM 46320, S. aureus 39; test: Antimicrobial assay, broth microdilution MIC, S. aureus strains; format: cell-based; conditions: Staphylococcus aureus
Protocol: (§1) The antimicrobial activities of the compounds were determined in 96-well plates (Greiner, polystyrene) by the standard NCCLS broth microdilution method (National Committee for Clinical Laboratory Standards 1993. Methods for dilution antimicrobial susceptibility tests for bacteria that grow aerobically, 3rd ed. Approved standard M7-A6. National Committee for Clinical laboratory standards, Wayne, Pa.) with slight modifications. Inocula of the microorganisms were diluted into Mueller-Hinton II (MH, cation adjusted) broth+0.002% P-80 and compared with a 0.5 McFarland standard to give appr. 10^6 colony forming units (CFU)/mL. Aliquots (50 μl) of inoculate were added to 50 μl of MH broth+0.002% P-80 containing the compounds in serial two-fold dilutions. The following microorganisms were used to determine antibiotic selectivity of the compounds: S. pneumoniae DSM 20566 11A11, 3313A6, 704CG4B21, 82BERG72; S. aureus ATCC 29213, ATCC 25923, DSM 11729, DSM 46320, S. aureus 39. Antimicrobial activities of the compounds were expressed as the minimal inhibitory concentration (MIC) in μg/mL at which no visible growth was observed after 18-20 hours of incubation at 36° C.

[2] = system: S. pneumoniae DSM 20566 11A11, 3313A6, 704CG4B21, 82BERG72; test: Antimicrobial assay, broth microdilution MIC, S. pneumoniae strains; format: cell-based; conditions: Streptococcus pneumoniae, DSM20566
Protocol: as §1

[3] = target: T1, Human recombinant cathepsin S (Homo sapiens, UniProt P25774); test: Cathepsin S (CatS) enzyme assay; format: biochemical
T1 construct: host or cells: murine myeloma NS0 cells
Protocol: 2. Enzyme Assays for the Peptidase Endothelin Converting Enzyme-1 (ECE-1) and for the Cysteine Protease Cathepsin S (CatS)
The assays were performed according to provider's (Ricerca Biosciences, LLC) protocols which in turn are based on literature procedures (for ECE-1 cf.: O. Valdenaire et al., Eur. J. Biochem. 1999, 264, 341-349; F. D. Russell, A. P. Davenport, Circ. Res. 1999, 84, 891-896; and for CatS: G P Shi et al., J. Biol. Chem. 1992, 267, 7258-62; D Brömme et al., J. Biol. Chem. 1993 268, 4832-4838.).
Human recombinant cathepsin S expressed in a murine myeloma NS0 cells is used. Test compound and/or vehicle is preincubated with 0.1 μg/ml enzyme in modified acetate buffer pH 4.5 for 15 minutes at 25° C. The reaction is initiated by addition of […] Z-Leu-Arg-AMC for another 30 minutes' incubation period. Determination of the amount of AMC formed is read spectrofluorimetrically at 360 nm/465 nm. […]
IC50 values were determined by a non-linear, least squares regression analysis using MathIQ™ (ID Business Solutions Ltd., UK). Inhibition constants K were calculated according to the equation of Cheng and Prusoff (Y. Cheng, W. H. Prusoff, Biochem. Pharmacol. 1973, 22, 3099-3108) using the observed IC50 of the tested compound, the concentration of radioligand employed in the assay, and the historical values for the KD of the ligand. The Hill coefficient (nH), defining the slope of the competitive binding curve, was calculated using MathIQ™.

[4] = Metabolic stability assay, human liver microsomes; format: in vitro ADME; conditions: human microsomes, 10 μM, 37° C.
How it was run: (§2)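 Pooled human (50 donors, mixed gender) or CD-1 mouse microsomes at 1 mg/mL protein, 10 μM compound, 100 mM potassium phosphate with NADPH-regenerating system, 37 °C in duplicate. Samples at 0, 5, 10, 20, 60 min analysed by HPLC/MS/MS; turnover as % of 0-min value and T½ (min) calculated.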

[5] = Metabolic stability assay, CD-1 mouse microsomes; format: in vitro ADME; conditions: CD-1 mouse microsomes, 10 μM, 37° C.
How it was run: as §2

[6] = Plasma stability assay, human plasma; format: in vitro ADME
How it was run: (§3)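 Compounds at 10 μM were incubated at 37 °C in triplicate in sodium citrate-stabilized plasma (human, or pooled mixed-gender CD-1 mouse). Samples taken at 0–240 min were acetonitrile-quenched and analyzed by HPLC/MS/MS. Remaining peak area as % of t0 gave endpoint stability (%) and half-life (min).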

[7] = Plasma stability assay, CD-1 mouse plasma; format: in vitro ADME
How it was run: as §3

[8] = strain ATCC 25923, read-out: MIC S. aureus ATCC 25923
[9] = strain ATCC 29213, read-out: MIC S. aureus ATCC 29213
[10] = strain DSM 11729, read-out: MIC S. aureus DSM 11729
[11] = strain S. aureus 39, read-out: MIC S. aureus 39
[12] = strain DSM 20566 (Table 32.7), read-out: MIC S. pneumoniae DSM 20566
[13] = strain 11A11, read-out: MIC S. pneumoniae 11A11
[14] = strain 82BERG72, read-out: MIC S. pneumoniae 82BERG72
[15] = strain 704CG4B21, read-out: MIC S. pneumoniae 704CG4B21
[16] = strain 3313A6, read-out: MIC S. pneumoniae 3313A6
[17] = strain DSM 20566 (Table 32.8), read-out: MIC S. pneumoniae DSM 20566

T1 sequence (P25774 115-331): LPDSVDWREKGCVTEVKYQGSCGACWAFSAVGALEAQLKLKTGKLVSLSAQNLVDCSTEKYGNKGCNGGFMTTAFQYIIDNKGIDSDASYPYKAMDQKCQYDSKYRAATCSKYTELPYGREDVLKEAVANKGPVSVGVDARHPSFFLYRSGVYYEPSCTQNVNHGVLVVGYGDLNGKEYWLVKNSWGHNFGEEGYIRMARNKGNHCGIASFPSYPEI

Compound: CN(C)CC(=O)N[C@H]1CCCN(C)C(=O)c2cccc(c2)-c2ccccc2OC[C@@H]2C[C@H](NC(=O)Cc3ccc4ccccc4c3)CN2C1=O [Ex. 20, 2-(dimethylamino)-N-[(10S,12S,16S)-20-methyl-12-{[2-(2-naphthyl)acetyl]amino}-15,21-dioxo-8-oxa-14,20-diazatetracyclo[20.3.1.0^2,7.0^10,14]hexacosa-1(26),2,4,6,22,24-hexaen-16-yl]acetamide]
IC50 [3]: 14.7 µM
inhibition at 10 µM ([3]; 10 μM compound): 45%

Compound: CN1CCC[C@H](NS(=O)(=O)C2CC2)C(=O)N2C[C@@H](NC(=O)Cc3ccc4ccccc4c3)C[C@H]2COc2ccccc2-c2cccc(c2)C1=O [Ex. 21, N-[(10S,12S,16S)-16-[(cyclopropylsulfonyl)amino]-20-methyl-15,21-dioxo-8-oxa-14,20-diazatetracyclo[20.3.1.0^2,7.0^10,14]hexacosa-1(26),2,4,6,22,24-hexaen-12-yl]-2-(2-naphthyl)acetamide]
inhibition at 10 µM ([3]; 10 μM compound): 75%

Compound: CC(C)CC(=O)N[C@H]1CCCN(C)C(=O)c2cccc(c2)-c2ccccc2OC[C@@H]2C[C@H](NC(=O)Cc3ccc4ccccc4c3)CN2C1=O [Ex. 24, 3-methyl-N-[(10S,12S,16S)-20-methyl-12-{[2-(2-naphthyl)acetyl]amino}-15,21-dioxo-8-14,20-diazatetracyclo[20.3.1.0^2,7.0^10,14]hexacosa-1(26),2,4,6,22,24-hexaen-16-yl]butanamide]
% Inhibition at 10 μM ([3]; 10 μM compound): 55%

Compound: CCCC(=O)N[C@H]1CCCN(C)C(=O)c2cccc(c2)-c2ccccc2OC[C@@H]2C[C@H](NC(=O)Cc3ccc4ccccc4c3)CN2C1=O [Ex. 27, N-[(10S,12S,16S)-20-methyl-12-{[2-(2-naphthyl)acetyl]amino)-15,21-dioxo-8-oxa-14,20-diazatetracyclo[20.3.1.0^2,7.0^10,14]hexacosa-1(26),2,4,6,22,24-hexaen-16-yl]butanamide]
inhibition at 10 µM ([3]; 10 μM compound): 50%

Compound: CCCCC(=O)N[C@H]1CCCN(C)C(=O)c2cccc(c2)-c2ccccc2OC[C@@H]2C[C@H](NC(=O)Cc3ccc4ccccc4c3)CN2C1=O [Ex. 28, N-[(10S,12S,16S)-20-methyl-12-{[2-(2-naphthyl)acetyl]amino}-15,21-dioxo-8-oxa-14,20-diazatetracyclo[20.3.1.0^2,7.0^10,14]hexacosa-1(26),2,4,6,22,24-hexaen-16-yl]pentanamide]
inhibition at 10 µM ([3]; 10 μM compound): 57%

Compound: C[C@H]1COc2cccc(c2)-c2cccc(c2)C(=O)N(C)[C@H](C(=O)NCc2ccc3ccccc3c2)CCC(=O)N1 [Ex. 89, (9S,14S)-9,15-dimethyl-N-(2-naphthylmethyl)-11,16-dioxo-7-oxa-10,15-diazatricyclo[15.3.1.1^2,6]docosa-1(21),2(22),3,5,17,19-hexaene-14-carboxamide]
half-life at 10 μM ([4]; both sexes, liver microsomes, 1 mg/ml protein, read-out: Metabolic Stability T ½ [min] hum): 13 min
Metabolic Stability 60 min hum [% remain.] ([4]; 60 min): 8 % remain.
Metabolic Stability 60 min mouse/(rat) [% remain.] ([5]; 60 min): 2 % remain.
half-life at 10 μM ([5]; both sexes, 1 mg/ml protein, read-out: Metabolic Stability T ½ [min] mouse/(rat)): 10 min
Plasma Stability 240 min hum [% remain.] ([6]; human plasma, 240 min, 10 μM, 37° C.): 100 % remain.
half-life at 10 μM ([6]; human, plasma): > 240 min
Plasma Stability 240 min mouse/(rat) [% remain.] ([7]; CD-1 mouse plasma, 240 min, 10 μM, 37° C.): 76 % remain.
half-life at 10 μM ([7]; both sexes, CD-1, mouse, plasma): > 240 min

The remaining lines, values ahead:

MIC [1, 8]: 16 µg/mL (≈ 32.3 µM)
MIC [1, 9]: 8 to 16 µg/mL (≈ 16.2 to 32.3 µM)
MIC [1, 10]: 8 to 16 µg/mL (≈ 16.2 to 32.3 µM)
MIC [1, 11]: 4 µg/mL (≈ 8.09 µM)
MIC [2, 12]: 8 µg/mL (≈ 16.2 µM)
Compound: CC(C)(C)OC(=O)N[C@H]1C[C@H]2COc3cccc(c3)-c3ccccc3C(=O)NCC[C@@H](N)C(=O)N2C1 [Ex. 2, tert-butyl N-[(12R,16S,18S)-12-amino-8,13-dioxo-20-oxa-9,14-diazatetracyclo[19.3.1.0^2,7.0^14,18]pentacosa-1(25),2,4,6,21,23-hexaen-16-yl]carbamate]

MIC [1, 8]: 4 µg/mL (≈ 8.07 µM)
MIC [1, 9]: 2 to 4 µg/mL (≈ 4.04 to 8.07 µM)
MIC [1, 10]: 2 µg/mL (≈ 4.04 µM)
MIC ([1]; strain DSM 46320, read-out: MIC S. aureus DSM 46320): 4 µg/mL (≈ 8.07 µM)
MIC [1, 11]: 8 µg/mL (≈ 16.1 µM)
MIC [2, 12]: > 16 µg/mL
Compound: CC(C)(C)OC(=O)N[C@@H]1C[C@H]2COc3cccc(c3)-c3cncc(c3)C(=O)NCCNCC(=O)N2C1 [Ex. 91, tert-butyl N-[(9S,11R)-14,20-dioxo-7-oxa-13,16,19,23-tetraazatetracyclo[19.3.1.1^2,6.0^9,13]hexacosa-1(25),2(26),3,5,21,23-hexaen-11-yl]carbamate]

MIC [2, 13]: 16 µg/mL (≈ 27.6 µM)
MIC [2, 14]: 8 µg/mL (≈ 13.8 µM)
MIC [2, 15]: 16 µg/mL (≈ 27.6 µM)
MIC [2, 16]: 16 µg/mL (≈ 27.6 µM)
MIC [2, 17]: 16 µg/mL (≈ 27.6 µM)
Compound: N[C@H]1C[C@H]2COc3cc(F)cc(c3)-c3csc(c3)C(=O)N[C@H](C(=O)Nc3ccccc3)COCCCCC(=O)N2C1 [Ex. 247, (8S,18S,20S)-18-amino-25-fluoro-6,15-dioxo-N-phenyl-10,22-dioxa-4-thia-7,16-diazatetracyclo[21.3.1.1^2,5.0^16,20]octacosa-1(27),2,5(28),23,25-pentaene-8-carboxamide]

MIC [2, 13]: 8 µg/mL (≈ 13 µM)
MIC [2, 14]: 2 µg/mL (≈ 3.25 µM)
MIC [2, 15]: 8 µg/mL (≈ 13 µM)
MIC [2, 16]: 8 µg/mL (≈ 13 µM)
MIC [2, 17]: 8 µg/mL (≈ 13 µM)
Compound: N[C@H]1C[C@H]2COc3cc(F)cc(c3)-c3csc(c3)C(=O)N[C@H](C(=O)Nc3ccc(Cl)cc3)COCCCCC(=O)N2C1 [Ex. 257, (8S,18S,20S)-18-amino-N-(4-chlorophenyl)-25-fluoro-6,15-dioxo-10,22-dioxa-4-thia-7,16-diazatetracyclo[21.3.1.1^2,5.0^16,20]octacosa-1(27),2,5(28),23,25-pentaene-8-carboxamide]

MIC [2, 13]: 16 µg/mL (≈ 26.9 µM)
MIC [2, 14]: 4 µg/mL (≈ 6.73 µM)
MIC [2, 15]: 8 µg/mL (≈ 13.5 µM)
MIC [2, 16]: 8 µg/mL (≈ 13.5 µM)
MIC [2, 17]: 8 µg/mL (≈ 13.5 µM)
Compound: Cc1cccc(NC(=O)[C@@H]2COCCCCC(=O)N3C[C@@H](N)C[C@H]3COc3cc(F)cc(c3)-c3csc(c3)C(=O)N2)c1 [Ex. 259, (8S,18S,20S)-18-amino-25-fluoro-N-(3-methylphenyl)-6,15-dioxo-10,22-dioxa-4-thia-7,16-diazatetracyclo[21.3.1.1^2,5.0^16,20]octacosa-1(27),2,5(28),23,25-pentaene-8-carboxamide]
